Like-named read-outs stand apart in the source and are kept apart here.
What was measured:
in vitro = conditions: African monkey
recombinant M^Pro = recombinant M^Pro (Severe acute respiratory syndrome coronavirus 2, UniProt P0DTD1); assay: SARS-CoV-2 Mpro screening and IC50 determination (QS1 fluorogenic substrate, Drag assay); assay type: biochemical; conditions: for inhibition at 10 µM: read-out: M^Pro (%inh)@10μM
PL^Pro = PL^Pro (Severe acute respiratory syndrome coronavirus 2, UniProt P0DTD1); assay: SARS-CoV-2 PLpro screening (Ac-LRGG-ACC substrate); assay type: biochemical; conditions: read-out: PL^Pro (%inh)@10μM
[1] = recombinant M^Pro, 20 μM QS1 (Ac-Abu-Tle-Leu-Gln-ACC) substrate, Table 1, read-out: M^Pro IC50
[2] = recombinant M^Pro, 20 μM QS1 substrate, Table 3, read-out: M^Pro IC50
[3] = recombinant M^Pro, 20 μM QS1 substrate, Table 5, read-out: IC50 (μM) M^Pro

SMILES | inhibition at 10 µM (recombinant M^Pro) | IC50 (recombinant M^Pro; [1]) | inhibition at 10 µM (PL^Pro) | further results
CC(C)(C)[C@H](NC(=O)C(F)(F)F)C(=O)N1C[C@H]2[C@@H]([C@H]1C(=O)N[C@H](C#N)C[C@@H]1CCNC1=O)C2(C)C [nirmatrelvir, reference compound] | – | – | – | CC50 (in vitro): > 100000 nM
N#C[C@H](C[C@@H]1CCNC1=O)NC(=O)[C@H](CC1CCCCC1)NC(=O)c1ccc(-c2cncc(Cl)c2)cc1 [12o] | < 95% | 2.4 µM | < 50% | –
COc1cccc(-c2ccc(C(=O)N[C@@H](CC(C)C)C(=O)N[C@H](C#N)C[C@@H]3CCNC3=O)c(F)c2F)c1 [18d] | – | – | – | IC50 (recombinant M^Pro; [2]): 0.171 µM
COc1ccccc1-c1ccc(C(=O)N[C@@H](CC(C)C)C(=O)N[C@H](C#N)C[C@@H]2CCNC2=O)cc1 [6g] | > 95% | 1.09 µM | < 50% | IC50 (recombinant M^Pro; read-out: M^Pro IC50): > 1 µM
CCC[C@H](NC(=O)c1ccc(-c2ccc(OC)c(OC)c2)cc1)C(=O)N[C@H](C#N)C[C@@H]1CCNC1=O [12g] | > 95% | 9.55 µM | < 50% | –
COc1cccc(-c2ccc(C(=O)N3C[C@H]4[C@@H]([C@H]3C(=O)N[C@H](C#N)C[C@@H]3CCNC3=O)C4(C)C)c(F)c2)c1 [22c] | – | – | – | IC50 (recombinant M^Pro; [3]): 0.465 µM
COc1ccc(-c2ccc(C(=O)N3C[C@@H]4CCC[C@@H]4[C@H]3C(=O)N[C@H](C#N)C[C@@H]3CCNC3=O)c(F)c2)cc1 [22j] | – | – | – | IC50 (recombinant M^Pro; [3]): 1.27 µM
N#C[C@H](C[C@@H]1CCNC1=O)NC(=O)C1(NC(=O)c2ccc(Br)cc2)CCCCC1 [11e] | > 95% | – | < 50% | –
N#CC(CC1CCNC1=O)NC(=O)C(CC1CCCCC1)NC(=O)c1ccc(Br)cc1 (stereo not shown) [11d] | < 95% | – | < 50% | –
Cn1cc2c(-c3ccc(C(=O)N[C@@H](CC4CCCCC4)C(=O)N[C@H](C#N)C[C@@H]4CCNC4=O)cc3)cccc2n1 [12n] | < 95% | 1.28 µM | < 50% | –
CC(C)C[C@H](NC(=O)c1ccc(-c2ccc3cnn(C)c3c2)cc1Cl)C(=O)N[C@H](C#N)C[C@@H]1CCNC1=O [18q] | – | – | – | IC50 (recombinant M^Pro; M^Pro IC50 (μM), recombinant M^Pro, 20 μM QS1 substrate, Table 3): 0.053 µM; CC50 (in vitro): 77400 nM
CCOc1ccc(-c2ccc(C(=O)N[C@@H](CC(C)C)C(=O)N[C@H](C#N)C[C@@H]3CCNC3=O)cc2)cc1F [6m] | > 95% | 0.731 µM | < 50% | –
CC(C)C[C@H](NC(=O)c1ccc(-c2ccc(Cl)cc2)cc1)C(=O)N[C@H](C#N)C[C@@H]1CCNC1=O [6a] | > 95% | 0.724 µM | < 50% | activity / biochemical potency against M^Pro (in words) (recombinant M^Pro): submicromolar
CCC[C@H](NC(=O)c1ccc(-c2ccccc2OC)cc1)C(=O)N[C@H](C#N)C[C@@H]1CCNC1=O [12d] | < 95% | – | < 50% | –
CCOc1ccc(-c2ccc(C(=O)N[C@@H](CC(C)C)C(=O)N[C@H](C#N)C[C@@H]3CCNC3=O)cc2)cc1 [6c] | > 95% | 0.765 µM | < 50% | –
CCCC(NC(=O)c1ccc(Br)cc1)C(=O)NC(C#N)CC1CCNC1=O (stereo not shown) [11c] | < 95% | – | < 50% | –
CCC[C@H](NC(=O)c1ccc(-c2ccc(OC)nc2)cc1)C(=O)N[C@H](C#N)C[C@@H]1CCNC1=O [12j] | < 95% | – | < 50% | –
COc1cccc(-c2ccc(C(=O)N3C[C@@H]4CCC[C@@H]4[C@H]3C(=O)N[C@H](C#N)C[C@@H]3CCNC3=O)cc2)c1 [22g] | – | – | – | IC50 (recombinant M^Pro; [3]): 2.67 µM
CCC[C@H](NC(=O)c1ccc(-c2ccc(OC)cc2)cc1)C(=O)N[C@H](C#N)C[C@@H]1CCNC1=O [12f] | > 95% | 5.48 µM | < 50% | –
COc1cccc(-c2ccc(C(=O)N[C@@H](CC(C)C)C(=O)N[C@H](C#N)C[C@@H]3CCNC3=O)cc2F)c1 [18h] | – | – | – | IC50 (recombinant M^Pro; [2]): 0.694 µM
CCC[C@H](NC(=O)c1ccc(-c2cccc(OCC)c2)cc1)C(=O)N[C@H](C#N)C[C@@H]1CCNC1=O [12i] | > 95% | 4.86 µM | < 50% | –
CCC[C@H](NC(=O)c1ccc(-c2cncc(Cl)c2)cc1)C(=O)N[C@H](C#N)C[C@@H]1CCNC1=O [12h] | > 95% | 8.95 µM | < 50% | –
CC(C)C[C@H](NC(=O)c1ccc(-c2ccc(F)cc2)cc1)C(=O)N[C@H](C#N)C[C@@H]1CCNC1=O [6b] | > 95% | 0.849 µM | < 50% | activity / biochemical potency against M^Pro (in words) (recombinant M^Pro): submicromolar
COc1ccc(-c2ccc(C(=O)N[C@@H](CC(C)C)C(=O)N[C@H](C#N)C[C@@H]3CCNC3=O)cc2)cc1 [6d] | > 95% | 0.735 µM | < 50% | –
CCC[C@H](NC(=O)c1ccc(-c2cccc(OC)c2)cc1)C(=O)N[C@H](C#N)C[C@@H]1CCNC1=O [12e] | > 95% | 4.86 µM | < 50% | –
COc1ccc(-c2cc(F)c(C(=O)N[C@@H](CC(C)C)C(=O)N[C@H](C#N)C[C@@H]3CCNC3=O)cc2F)cc1 [18g] | – | – | – | IC50 (recombinant M^Pro; [2]): 0.229 µM

Reference: PMC12516390 (ACS Medicinal Chemistry Letters, 2025)
